The values below come from patent US8258257B2 (The Regents of the University of California, priority 2008, dated 2012).

Test [1] deals with Cldn-4 deletion mutant proteins fused to GST (Mus musculus, UniProt O35054). Format: binding.
In test [2] the test system is Cldn-4 deletion mutant proteins fused to GST. Type of test: binding, Mouse.

Where no end group is shown, it is not given here.

Regarding SLDAGQYVLVMKANSSYSGNYPYSILFQKF [Cpe30], in test [1], the “binding to GST-Ecl2 without any TM domain” value is listed as “detectable binding activity, albeit at much lower affinity”; the “binding to TM3.Ecl2.TM4” value is given as “consistent binding”; the “sensorgram behaviour with full length Cldn-4 fusion” value is reported as “slight decrease in the late stages of association”. Also, the “binding to GST cldn-4 fusion proteins” value in test [2] was “high affinity specific binding”.
